Test: Essential fatty acid parameters in plasma and RBC, 6-week AAMI study
Type: in vivo, human
Experimental: Blood samples (10 mL) were collected at Visit 1 (screening) and at Visits 4, 5 and 6. Analysis was performed by MSR Lipid Analysis, Scottish Crop Research Institute, Dundee, UK. The screening sample acted as baseline for the EFA measurements. Lipid was extracted from plasma, serum and RBC suspensions and converted into fatty acid methyl esters which were analyzed by gas chromatography to give fatty acid profiles as micrograms fatty acid per gram of sample (μgFA/g) and normalized area percent. RBC and plasma EFA data were collected at baseline, Day 14, 28 and 42 and summarized by visit for each treatment group. Change from baseline and percent change from baseline were also summarized. ANCOVA comparison of ethyl-EPA dose groups and ethyl-EPA versus placebo was performed.

CC/C=C\C/C=C\C/C=C\C/C=C\C/C=C\CCCC(=O)OCC [AMR101, ethyl eicosapentaenoate]
AA, Plasma, Mean (SD) change from Baseline (1 g daily, Day 14): −9.7 (22.20) μg/g | AA, RBC, Mean (SD) change from Baseline (1 g daily, Day 14): −8.1 (21.95) μg/g | DGLA, Plasma, mean (SD) change from Baseline (1 g daily, Day 14): −10.4 (10.90) μg/g | DGLA, RBC, mean (SD) change from Baseline (1 g daily, Day 14): −2.7 (3.82) μg/g | DHA, Plasma, Mean (SD) change from Baseline (1 g daily, Day 14): −6.4 (13.30) μg/g | DHA, RBC, Mean (SD) change from Baseline (1 g daily, Day 14): −4.6 (9.76) μg/g | AA, Plasma, Mean (SD) change from Baseline (1 g daily, Day 28): −11.3 (28.13) μg/g | AA, RBC, Mean (SD) change from Baseline (1 g daily, Day 28): −17.0 (20.69) μg/g | DGLA, Plasma, mean (SD) change from Baseline (1 g daily, Day 28): −10.6 (10.23) μg/g | DGLA, RBC, mean (SD) change from Baseline (1 g daily, Day 28): −3.8 (3.31) μg/g | DHA, Plasma, Mean (SD) change from Baseline (1 g daily, Day 28): −6.6 (15.53) μg/g | DHA, RBC, Mean (SD) change from Baseline (1 g daily, Day 28): −6.4 (11.57) μg/g | AA, Plasma, Mean (SD) change from Baseline (1 g daily, Day 42): −8.7 (31.35) μg/g | AA, RBC, Mean (SD) change from Baseline (1 g daily, Day 42): −14.2 (27.69) μg/g | DGLA, Plasma, mean (SD) change from Baseline (1 g daily, Day 42): −9.4 (9.41) μg/g | DGLA, RBC, mean (SD) change from Baseline (1 g daily, Day 42): −3.5 (4.51) μg/g | DHA, Plasma, Mean (SD) change from Baseline (1 g daily, Day 42): −5.4 (18.17) μg/g | DHA, RBC, Mean (SD) change from Baseline (1 g daily, Day 42): −7.0 (12.20) μg/g | EPA/AA, Plasma, mean (SD) change from Baseline (1 g daily, Day 42): 0.3 | AA, Plasma, LS Mean, 1 g versus 4 g (1 g versus 4 g): 4.2 µg/g | AA, RBC, LS Mean, 1 g versus 4 g (1 g versus 4 g): 8.4 µg/g | DGLA, Plasma, LS mean, 1 g versus 4 g (1 g versus 4 g): 3.7 µg/g | DGLA, RBC, LS mean, 1 g versus 4 g (1 g versus 4 g): 1.5 µg/g | DHA, Plasma, LS mean, 1 g versus 4 g (1 g versus 4 g): -0.8 µg/g | DHA, RBC, LS mean, 1 g versus 4 g (1 g versus 4 g): 1.0 µg/g | AA, Plasma, Mean (SD) change from Baseline (2 g daily, Day 14): −13.9 (22.13) μg/g | AA, RBC, Mean (SD) change from Baseline (2 g daily, Day 14): −3.1 (25.84) μg/g | DGLA, Plasma, mean (SD) change from Baseline (2 g daily, Day 14): −14.1 (6.88) μg/g | DGLA, RBC, mean (SD) change from Baseline (2 g daily, Day 14): −2.6 (3.54) μg/g | DHA, Plasma, Mean (SD) change from Baseline (2 g daily, Day 14): −5.4 (14.29) μg/g | DHA, RBC, Mean (SD) change from Baseline (2 g daily, Day 14): −2.0 (9.46) μg/g | AA, Plasma, Mean (SD) change from Baseline (2 g daily, Day 28): 21.6 (28.32) μg/g | AA, RBC, Mean (SD) change from Baseline (2 g daily, Day 28): −14.1 (26.89) μg/g | DGLA, Plasma, mean (SD) change from Baseline (2 g daily, Day 28): −16.2 (9.88) μg/g | DGLA, RBC, mean (SD) change from Baseline (2 g daily, Day 28): −4.5 (3.58) μg/g | DHA, Plasma, Mean (SD) change from Baseline (2 g daily, Day 28): −8.1 (15.82) μg/g | DHA, RBC, Mean (SD) change from Baseline (2 g daily, Day 28): −6.2 (9.34) μg/g | AA, Plasma, Mean (SD) change from Baseline (2 g daily, Day 42): −27.3 (26.76) μg/g | AA, RBC, Mean (SD) change from Baseline (2 g daily, Day 42): −18.8 (25.62) μg/g | DGLA, Plasma, mean (SD) change from Baseline (2 g daily, Day 42): −17.3 (9.92) μg/g | DGLA, RBC, mean (SD) change from Baseline (2 g daily, Day 42): −5.3 (3.65) μg/g | DHA, Plasma, Mean (SD) change from Baseline (2 g daily, Day 42): −6.0 (16.69) μg/g | DHA, RBC, Mean (SD) change from Baseline (2 g daily, Day 42): −6.3 (9.42) μg/g | AA, Plasma, LS Mean, 2 g versus 4 g (2 g versus 4 g): 15.6 µg/g | AA, RBC, LS Mean, 2 g versus 4 g (2 g versus 4 g): 9.8 µg/g | DGLA, Plasma, LS mean, 2 g versus 4 g (2 g versus 4 g): 2.5 µg/g | DGLA, RBC, LS mean, 2 g versus 4 g (2 g versus 4 g): 1.5 µg/g | DHA, Plasma, LS mean, 2 g versus 4 g (2 g versus 4 g): 1.5 µg/g | DHA, RBC, LS mean, 2 g versus 4 g (2 g versus 4 g): 1.0 µg/g | AA, Plasma, Mean (SD) change from Baseline (4 g daily, Day 14): −27.2 (28.89) μg/g | AA, RBC, Mean (SD) change from Baseline (4 g daily, Day 14): −15.7 (26.76) μg/g | DGLA, Plasma, mean (SD) change from Baseline (4 g daily, Day 14): −22.9 (9.00) μg/g | DGLA, RBC, mean (SD) change from Baseline (4 g daily, Day 14): −5.3 (4.10) μg/g | DHA, Plasma, Mean (SD) change from Baseline (4 g daily, Day 14): −10.3 (13.35) μg/g | DHA, RBC, Mean (SD) change from Baseline (4 g daily, Day 14): −6.9 (9.13) μg/g | AA, Plasma, Mean (SD) change from Baseline (4 g daily, Day 28): −43.7 (32.24) μg/g | AA, RBC, Mean (SD) change from Baseline (4 g daily, Day 28): −22.8 (29.56) μg/g | DGLA, Plasma, mean (SD) change from Baseline (4 g daily, Day 28): −24.2 (10.73) μg/g | DGLA, RBC, mean (SD) change from Baseline (4 g daily, Day 28): −7.1 (4.63) μg/g | DHA, Plasma, Mean (SD) change from Baseline (4 g daily, Day 28): −13.5 (14.10) μg/g | DHA, RBC, Mean (SD) change from Baseline (4 g daily, Day 28): −8.7 (11.63) μg/g | AA, Plasma, Mean (SD) change from Baseline (4 g daily, Day 42): −48.3 (22.20) μg/g | AA, RBC, Mean (SD) change from Baseline (4 g daily, Day 42): −34.4 (31.44) μg/g | DGLA, Plasma, mean (SD) change from Baseline (4 g daily, Day 42): −22.5 (10.87) μg/g | DGLA, RBC, mean (SD) change from Baseline (4 g daily, Day 42): −8.0 (4.98) μg/g | DHA, Plasma, Mean (SD) change from Baseline (4 g daily, Day 42): −13.8 (15.31) μg/g | DHA, RBC, Mean (SD) change from Baseline (4 g daily, Day 42): −13.8 (13.76) μg/g | EPA, DPAn-3 and EPA/AA ratio values, change from baseline to Day 42 (plasma and RBC, 1, 2 and 4 g treatment groups): increased substantially

Reference: patent US20200268702A1, “METHODS OF TREATING […]” (Amarin Pharmaceuticals Ireland Limited, priority 2013, published 2020)
